Four compounds from patent US9486506B2 (Novo Nordisk A/S, priority 2011, dated 2016) can be followed below.

In the assay the target is T1, glucagon receptor (Homo sapiens, UniProt P47871).
T1 construct: expressed in transfected cells
The assay is described as follows: Assay (I) Glucagon activity (cAMP biosensor, FLIPR). The class given is cell-based. As to the method: The cells (14000 per well) were incubated (37° C., 5% CO2) overnight in 384-well plates. Next day the cells were loaded with a calcium responsive dye that only distributed into the cytoplasm. Probenecid, an inhibitor of the organic anion transporter, was added to prevent the dye from leaving the cell. A PDE inhibitor was added to prevent formatted cAMP from being degraded. The plates were placed into a […] and the glucagon analogues were added. End point data were collected after 6 minutes. An increase in intracellular cAMP was proportional to an increased in calcium concentrations in the cytoplasm. When calcium was bound the dry a fluorescence signal was generated. EC50-values were calculated in Prism5.

Each structure is given as a SMILES string. Numbered stars: 1 amine (or outer) side, 2 acyl side, 3 side chain; on linkers, the order of the positions; unused ones are H or OH. Side chains are listed from the residue outwards. Peptide text beside a SMILES is read from it. * marks the point of attachment. C18 diacid = O=C(O)CCCCCCCCCCCCCCCCC(=O)*; C16 diacid = O=C(O)CCCCCCCCCCCCCCC(=O)*; γGlu = O=C(O)[C@H](CCC(=O)[*:2])N[*:1]; AEEA = NCCOCCOCC(=O)O

A word on the EC50: it is the concentration needed to bring the measured effect to its halfway point. A higher EC50 goes with weaker potency.

T1 sequence (P47871 26-477): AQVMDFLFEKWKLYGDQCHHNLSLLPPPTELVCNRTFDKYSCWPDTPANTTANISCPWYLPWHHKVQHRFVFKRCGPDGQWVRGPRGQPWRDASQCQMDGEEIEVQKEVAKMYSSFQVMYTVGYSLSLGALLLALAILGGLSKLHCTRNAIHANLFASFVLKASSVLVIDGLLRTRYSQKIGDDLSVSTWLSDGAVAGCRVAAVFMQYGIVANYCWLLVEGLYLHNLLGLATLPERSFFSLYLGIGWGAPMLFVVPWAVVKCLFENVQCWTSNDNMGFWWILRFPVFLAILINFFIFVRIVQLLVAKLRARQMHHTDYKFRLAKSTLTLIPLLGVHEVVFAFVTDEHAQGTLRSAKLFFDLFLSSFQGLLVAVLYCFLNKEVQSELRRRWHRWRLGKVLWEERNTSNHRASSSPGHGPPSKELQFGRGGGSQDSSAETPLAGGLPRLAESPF

For `CC(C)C[C@H](NC(=O)[C@H](CC(=O)O)NC(=O)[C@H](CC(C)C)NC(=O)[C@H](Cc1ccc(O)cc1)NC(=O)[C@H](CCCNC(=N)N)NC(=O)[C@H](CO)NC(=O)[C@H](Cc1ccc(O)cc1)NC(=O)[C@H](CC(=O)O)NC(=O)[C@H](CO)NC(=O)[C@@H](NC(=O)[C@H](Cc1ccccc1)NC(=O)[C@@H](NC(=O)CNC(=O)[C@H](CCC(N)=O)NC(=O)[C@H](CO)NC(=O)[C@@H](N)Cc1c[nH]cn1)[C@@H](C)O)[C@@H](C)O)C(=O)N[C@@H](CCCNC(=N)N)C(=O)N[C@@H](CCCNC(=N)N)C(=O)N[C@@H](C)C(=O)N[C@@H](CCC(N)=O)C(=O)N[C@@H](CC(=O)O)C(=O)N[C@@H](Cc1ccccc1)C(=O)N[C@H](C(=O)N[C@@H](CCCCNC(=O)CC[C@H](NC(=O)CC[C@H](NC(=O)CC[C@H](NC(=O)CCCCCCCCCCCCCCC(=O)O)C(=O)O)C(=O)O)C(=O)O)C(=O)N[C@@H](Cc1c[nH]c2ccccc12)C(=O)N[C@@H](CC(C)C)C(=O)N[C@@H](CC(C)C)C(=O)N[C@@H](CO)C(=O)N[C@H](C(=O)O)[C@@H](C)O)C(C)C` [Example 91, N^ε24-[(4S)-4-carboxy-4-[[(4S)-4-carboxy-4-[[(4S)-4-carboxy-4-(15-carboxypentadecanoylamino)butanoyl]amino]butanoyl]amino]butanoyl]-[Arg12,Leu16,Lys24,Leu27,Ser28]-Glucagon] (H-HSQGTFTSDYSRYLDLRRAQDFVK([γGlu-γGlu-γGlu-C16 diacid])WLLST-OH), the concentration for a half-maximal effect (EC50) was 0.027 nM.

`CC(C)C[C@H](NC(=O)[C@H](Cc1ccc(O)cc1)NC(=O)[C@H](CCCCN)NC(=O)[C@H](CO)NC(=O)[C@H](Cc1ccc(O)cc1)NC(=O)[C@H](CC(=O)O)NC(=O)[C@H](CO)NC(=O)[C@@H](NC(=O)[C@H](Cc1ccccc1)NC(=O)[C@@H](NC(=O)CNC(=O)[C@H](Cc1c[nH]cn1)NC(=O)[C@H](CO)NC(=O)[C@@H](N)Cc1c[nH]cn1)[C@@H](C)O)[C@@H](C)O)C(=O)N[C@@H](CC(=O)O)C(=O)N[C@@H](CO)C(=O)N[C@@H](CCCNC(=N)N)C(=O)N[C@@H](CCCNC(=N)N)C(=O)N[C@@H](C)C(=O)N[C@@H](CCC(N)=O)C(=O)N[C@@H](CC(=O)O)C(=O)N[C@@H](Cc1ccccc1)C(=O)N[C@H](C(=O)N[C@@H](CCCCNC(=O)CC[C@H](NC(=O)CC[C@H](NC(=O)COCCOCCNC(=O)COCCOCCNC(=O)CC[C@H](NC(=O)CCCCCCCCCCCCCCCCC(=O)O)C(=O)O)C(=O)O)C(=O)O)C(=O)N[C@@H](Cc1c[nH]c2ccccc12)C(=O)N[C@@H](CC(C)C)C(=O)N[C@@H](CC(C)C)C(=O)N[C@@H](CC(N)=O)C(=O)N[C@H](C(=O)O)[C@@H](C)O)C(C)C` [Example 5, N^ε24-[(4S)-4-carboxy-4-[[(4S)-4-carboxy-4-[[2-[2-[2-[[2-[2-[2-[[(4S)-4-carboxy-4-(17-carboxyheptadecanoylamino)butanoyl]amino]ethoxy]ethoxy]acetyl]amino]ethoxy]ethoxy]acetyl]amino]butanoyl]amino]butanoyl]-[His^3,Lys^24,Leu^27]-Glucagon] returned a 50% effective concentration (EC50) of 0.105 nM.

Take `CC(C)C[C@H](NC(=O)[C@H](CC(=O)O)NC(=O)[C@H](CC(C)C)NC(=O)[C@H](Cc1ccc(O)cc1)NC(=O)[C@H](CCCNC(=N)N)NC(=O)[C@H](CO)NC(=O)[C@H](Cc1ccc(O)cc1)NC(=O)[C@H](CC(=O)O)NC(=O)[C@H](CO)NC(=O)[C@@H](NC(=O)[C@H](Cc1ccccc1)NC(=O)[C@@H](NC(=O)CNC(=O)[C@H](CCC(N)=O)NC(=O)[C@H](CO)NC(=O)[C@@H](N)Cc1c[nH]cn1)[C@@H](C)O)[C@@H](C)O)C(=O)N[C@@H](CCCNC(=N)N)C(=O)N[C@@H](CCCNC(=N)N)C(=O)N[C@@H](C)C(=O)N[C@@H](CCC(N)=O)C(=O)N[C@@H](CC(=O)O)C(=O)N[C@@H](Cc1ccccc1)C(=O)N[C@H](C(=O)N[C@@H](CCCCNC(=O)CC[C@H](NC(=O)COCCOCCNC(=O)COCCOCCNC(=O)CC[C@H](NC(=O)CC[C@H](NC(=O)CCCCCCCCCCCCCCCCC(=O)O)C(=O)O)C(=O)O)C(=O)O)C(=O)N[C@@H](Cc1c[nH]c2ccccc12)C(=O)N[C@@H](CC(C)C)C(=O)N[C@@H](CC(C)C)C(=O)N[C@@H](CO)C(=O)N[C@H](C(=O)O)[C@@H](C)O)C(C)C` [Example 27, N^ε24-[(4S)-4-carboxy-4-[[2-[2-[2-[[2-[2-[2-[[(4S)-4-carboxy-4-[[(4S)-4-carboxy-4-(17-carboxyheptadecanoylamino)butanoyl]amino]butanoyl]amino]ethoxy]ethoxy]acetyl]amino]ethoxy]ethoxy]acetyl]amino]butanoyl]-[Arg^12,Leu^16,Lys^24,Leu^27,Ser^28]-Glucagon] (H-HSQGTFTSDYSRYLDLRRAQDFVK([γGlu-AEEA-AEEA-γGlu-γGlu-C18 diacid])WLLST-OH): the half-maximal effective concentration (EC50) turned out to be 0.91 nM.

`CC(C)C[C@H](NC(=O)[C@H](Cc1ccc(O)cc1)NC(=O)[C@H](CCCCN)NC(=O)[C@H](CO)NC(=O)[C@H](Cc1ccc(O)cc1)NC(=O)[C@H](CC(=O)O)NC(=O)[C@H](CO)NC(=O)[C@@H](NC(=O)[C@H](Cc1ccccc1)NC(=O)[C@@H](NC(=O)CNC(=O)[C@H](Cc1c[nH]cn1)NC(=O)[C@H](CO)NC(=O)[C@@H](N)Cc1c[nH]cn1)[C@@H](C)O)[C@@H](C)O)C(=O)N[C@@H](CC(=O)O)C(=O)N[C@@H](CO)C(=O)N[C@@H](CCCNC(=N)N)C(=O)N[C@@H](CCCNC(=N)N)C(=O)N[C@@H](C)C(=O)N[C@@H](CCCCN)C(=O)N[C@@H](CC(=O)O)C(=O)N[C@@H](Cc1ccccc1)C(=O)N[C@H](C(=O)N[C@@H](CCCCNC(=O)CC[C@H](NC(=O)CC[C@H](NC(=O)COCCOCCNC(=O)COCCOCCNC(=O)CC[C@H](NC(=O)CCCCCCCCCCCCCCCCC(=O)O)C(=O)O)C(=O)O)C(=O)O)C(=O)N[C@@H](Cc1c[nH]c2ccccc12)C(=O)N[C@@H](CC(C)C)C(=O)N[C@@H](CC(C)C)C(=O)N[C@@H](CO)C(=O)N[C@H](C(=O)O)[C@@H](C)O)C(C)C` [Example 3, N^ε24-[(4S)-4-carboxy-4-[[(4S)-4-carboxy-4-[[2-[2-[2-[[2-[2-[2-[[(4S)-4-carboxy-4-(17-carboxyheptadecanoylamino)butanoyl]amino]ethoxy]ethoxy]acetyl]amino]ethoxy]ethoxy]acetyl]amino]butanoyl]amino]butanoyl]-[His^3,Lys^20,Lys^24,Leu^27,Ser^28]-Glucagon] (H-HSHGTFTSDYSKYLDSRRAKDFVK([γGlu-γGlu-AEEA-AEEA-γGlu-C18 diacid])WLLST-OH): the EC50 stood at 0.249 nM.
